Measured values as given in patent US11279690B2, “Inhibitors of glutaminyl cyclase” (VIVORIAN THERAPEUTICS N.V, priority 2017, dated 2022).

Assays:
[1] = molecular target: hQC (Homo sapiens, UniProt Q16769); test: QC inhibitor assay, determination of Ki at pH 6.0; assay type: biochemical; conditions: read-out: Ki hQC pH6.0
Protocol: All measurements were performed with a BioAssay Reader HTS-7000Plus for microplates (Perkin Elmer) at 30° C. QC activity was evaluated fluorometrically using H-Gln-βNA. The samples consisted of 0.2 mM fluorogenic substrate, 0.25 U pyroglutamyl aminopeptidase (Unizyme, Horsholm, Denmark) in 0.2 M Tris/HCl, pH 8.0 containing 20 mM EDTA and an appropriately diluted aliquot of QC in a final volume of […]. Excitation/emission wavelengths were 320/410 nm. The assay reactions were initiated by addition of glutaminyl cyclase. QC activity was determined from a standard curve of β-naphthylamine under assay conditions. One unit is defined as the amount of QC catalyzing the formation of 1 μmol pGlu-βNA from H-Gln-βNA per minute under the described conditions.
In a second fluorometric assay, QC was activity determined using H-Gln-AMC as substrate. Reactions were carried out at 30° C. utilizing the NOVOStar reader for microplates (BMG labtechnologies). The samples consisted of varying concentrations of the fluorogenic substrate, 0.1 U pyroglutamyl aminopeptidase (Qiagen) in 0.05 M Tris/HCl, pH 8.0 containing 5 mM EDTA and an appropriately diluted aliquot of QC in a final volume of 250 μl. Excitation/emission wavelengths were 380/460 nm. The assay reactions were initiated by addition of glutaminyl cyclase. QC activity was determined from a standard curve of 7-amino-4-methylcoumarin under assay conditions. The kinetic data were evaluated using GraFit software.
This novel assay was used to determine the kinetic parameters for most of the QC substrates. […] Samples consisted of the respective QC substrate, 0.3 mM NADH, 14 mM α-Ketoglutaric acid and 30 U/ml glutamate dehydrogenase in a final volume of 250 μl. Reactions were started by addition of QC and persued by monitoring of the decrease in absorbance at 340 nm for 8-15 min.
The initial velocities were evaluated and the enzymatic activity was determined from a standard curve of ammonia under assay conditions. All samples were measured at 30° C., using either the […]luor Plus or the Sunrise (both from TECAN) reader for microplates. Kinetic data was evaluated using GraFit software.
(§1) For inhibitor testing, the sample composition was the same as described above, except of the putative inhibitory compound added. For a rapid test of QC-inhibition, samples contained 4 mM of the respective inhibitor and a substrate concentration at 1 KM. For detailed investigations of the inhibition and determination of Ki-values, influence of the inhibitor on the auxiliary enzymes was investigated first. […] The inhibitory constant was evaluated by fitting the set of progress curves to the general equation for competitive inhibition using GraFit software. The inhibitor assay was performed at two different pH levels, pH 6.0 and pH 8.0: The respective pH value in the assay solution was adjusted using conventional methods.

[2] = molecular target: hQPCTL (Homo sapiens, UniProt Q9NXS2); test: Inhibitor assay, determination of Ki against the QC isoenzyme at pH 6; assay type: biochemical; conditions: read-out: Ki hQPCTL pH6
Sequence of hQPCTL (Q9NXS2 whole entry): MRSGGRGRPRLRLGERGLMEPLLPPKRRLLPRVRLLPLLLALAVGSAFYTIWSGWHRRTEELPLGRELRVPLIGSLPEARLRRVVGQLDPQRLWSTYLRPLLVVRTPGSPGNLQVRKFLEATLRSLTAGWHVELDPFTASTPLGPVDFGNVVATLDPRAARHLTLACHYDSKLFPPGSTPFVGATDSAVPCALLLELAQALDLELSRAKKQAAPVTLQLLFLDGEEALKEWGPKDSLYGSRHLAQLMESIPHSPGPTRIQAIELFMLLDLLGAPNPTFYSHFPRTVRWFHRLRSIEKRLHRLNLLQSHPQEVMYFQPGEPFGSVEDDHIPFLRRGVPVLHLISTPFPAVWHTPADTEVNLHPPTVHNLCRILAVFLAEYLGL
Protocol: as §1

[3] = Pharmacokinetic parameters in mice, plasma, brain and CSF after oral administration; assay type: in vivo, mice (strain CD-1); conditions: mice (CD-1), 30 mg/kg orally in 0.8% Methocel
Protocol: Three mice (strain CD-1) were administered orally 30 mg/kg of each test compound dissolved in 0.8% Methocel. Samples were taken at the time points 10 min, 0.5, 1, 2, 4 and 8 hr after test compound administration for plasma and brain collection.
The mice were anesthetized with Isoflurane. Approximate […] of each blood sample were collected via cardiac puncture for terminal bleeding into K2EDTA tubes. Blood samples were put on ice and centrifuged at 2000 g for 5 min to obtain plasma sample within 15 minutes. CSF collection: The animals were euthanized with pure CO2 inhalation. A mid line incision was made on the neck. The muscle under the skin was cut to expose the cisterna magna. The cisterna magna was penetrated with the sharp end of a capillary and CSF was collected via capillarity.
After CSF collection, a perfusion with 7x total mouse blood volume (approximate 15 ml) of ice-cold PBS (pH 7.4) was conducted via cardiac puncture before brain collection. A mid-line incision was made in the animal scalp. The brain was removed and rinsed with cold saline. Brain was placed into a screw-top tube and weighed. Brain samples were homogenized for 2 min with 3 volumes (v/w) of PBS (pH 7.4) and then analyzed with LC-MS/MS. The brain concentration was corrected with a dilution factor of 4 as following: Brain concentration=brain homogenate conc.×4, assuming 1 g wet brain tissue equals to 1 ml.
Plasma, brain and CSF samples were stored at approximately −80° C. until analysis.
For plasma samples: An aliquot of 20 μl sample was added with 200 μ IS (Diclofenac, 200 ng/mL) in ACN, the mixture was vortexed for 2 min and centrifuged at 12.000 rpm for 5 min. 1 μl supernatant was injected for LC-MS/MS analysis.
For diluted plasma samples: An aliquot of 4 μl sample was added with 16 μl blank plasma, mixed well, added with 200 μl IS (Diclofenac, 200 ng/ml) in ACN.
For Brain samples: Brain tissue was homogenized for 2 min with 3 volumes (v/w) of PBS. An aliquot of 20 μl sample was added with 200 μl IS (Diclofenac, 200 ng/ml) in ACN, the mixture was vortexed for 2 min and centrifuged at 12000 rpm for 5 min. 1 μl supernatant was injected for LC-MS/MS analysis.
For CSF samples: The CSF sample was added with corresponding 20 fold volume of IS (Diclofenac, 200 ng/ml) in ACN, the mixture was vortexed for 2 min. 3 μl supernatant was injected for LC-MS/MS analysis.

Sequence of hQC (Q16769 29-361): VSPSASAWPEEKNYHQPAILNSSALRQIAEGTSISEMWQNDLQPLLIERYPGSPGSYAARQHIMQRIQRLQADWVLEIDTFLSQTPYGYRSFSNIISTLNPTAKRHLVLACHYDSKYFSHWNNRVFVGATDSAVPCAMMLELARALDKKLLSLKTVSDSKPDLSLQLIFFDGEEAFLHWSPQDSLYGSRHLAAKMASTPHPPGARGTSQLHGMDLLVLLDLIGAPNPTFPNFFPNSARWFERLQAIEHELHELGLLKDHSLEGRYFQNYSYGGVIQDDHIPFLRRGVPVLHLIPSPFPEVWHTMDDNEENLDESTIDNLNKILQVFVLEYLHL

| SMILES | Ki [1] | Ki [2] | blood-brain-barrier crossing behaviour [3] | AUC-values in the brain [3] | melting point |
| --- | --- | --- | --- | --- | --- |
| COc1cc(F)c(C2CC(=O)N2c2ccc3nc[nH]c3c2)c(F)c1 (racemic) [Example 4, 1-(1H-benzo[d]imidazol-5-yl)-4-(2,6-difluoro-4-methoxyphenyl)azetidin-2-one] | 8.6 nM | 2.5 nM | good | good |  |
| O=C1C[C@H](c2ccc(OCCC(F)F)cc2F)N1c1ccc2[nH]cnc2c1 [Example 5, (R)-4-(4-(3,3-difluoropropoxy)-2-fluorophenyl)-1-(1H-benzo[d]imidazol-5-yl)azetidin-2-one] | 3.3 nM | 0.86 nM | good | good | 150 to 155 °C |
| O=C1C[C@H](c2ccc(OCCC(F)F)c(F)c2F)N1c1ccc2[nH]cnc2c1 [Example 7, (R)-4-(4-(3,3-difluoropropoxy)-2,3-difluorophenyl)-1-(1H-benzo[d]imidazol-5-yl)azetidin-2-one] | 2.4 nM | 1.1 nM | good | good | 165 to 170 °C |
| O=C1C[C@@H](c2ccc(OCCC(F)F)c(F)c2F)N1c1ccc2[nH]cnc2c1 [Example 8, (S)-4-(4-(3,3-difluoropropoxy)-2,3-difluorophenyl)-1-(1H-benzo[d]imidazol-5-yl)azetidin-2-one] |  |  |  |  | 148 to 153 °C |
| O=C1C[C@H](c2c(F)cc(OCCC(F)F)cc2F)N1c1ccc2[nH]cnc2c1 [Example 9, (R)-4-(4-(3,3-difluoropropoxy)-2,6-difluorophenyl)-1-(1H-benzo[d]imidazol-5-yl)azetidin-2-one] |  |  | good | good |  |
| CC(F)(F)COc1ccc([C@H]2CC(=O)N2c2ccc3[nH]cnc3c2)c(F)c1F [Example 13, (R)-4-(4-(2,2-difluoropropoxy)-2,3-difluorophenyl)-1-(1H-benzo[d]imidazol-5-yl)azetidin-2-one] | 2.3 nM | 2 nM | good | good | 173 to 177 °C |
| CC(F)(F)COc1ccc([C@@H]2CC(=O)N2c2ccc3[nH]cnc3c2)c(F)c1F [Example 14, (S)-4-(4-(2,2-difluoropropoxy)-2,3-difluorophenyl)-1-(1H-benzo[d]imidazol-5-yl)azetidin-2-one] |  |  |  |  | 170 to 174 °C |
| CC(F)(F)COc1cc(F)c([C@H]2CC(=O)N2c2ccc3[nH]cnc3c2)c(F)c1 [Example 15, (R)-4-(4-(2,2-difluoropropoxy)-2,6-difluorophenyl)-1-(1H-benzo[d]imidazol-5-yl)azetidin-2-one] | 3.6 nM | 0.3 nM | good | good | 158 to 162 °C |
| CC(F)(F)COc1cc(F)c([C@@H]2CC(=O)N2c2ccc3[nH]cnc3c2)c(F)c1 [Example 16, (S)-4-(4-(2,2-difluoropropoxy)-2,6-difluorophenyl)-1-(1H-benzo[d]imidazol-5-yl)azetidin-2-one] |  |  |  |  | 163 to 166 °C |

Second part, the compound after the results:

| Ki [1] | Ki [2] | blood-brain-barrier crossing behaviour [3] | AUC-values in the brain [3] | melting point | SMILES |
| --- | --- | --- | --- | --- | --- |
| 170 nM | 33.4 nM |  |  |  | O=C1CC(c2ccccc2)N1c1ccc2[nH]cnc2c1 (racemic) [Example 1, 1-(1H-benzo[d]imidazol-5-yl)-4-phenylazetidin-2-one] |
| 20.8 nM | 6.9 nM |  |  |  | O=C1C[C@H](c2ccccc2)N1c1ccc2nc[nH]c2c1 [Example 2, (R)-1-(1H-benzo[d]imidazol-6-yl)-4-phenylazetidin-2-one] |
|  |  |  |  | 137 to 142 °C | O=C1C[C@@H](c2ccc(OCCC(F)F)cc2F)N1c1ccc2[nH]cnc2c1 [Example 6, (S)-4-(4-(3,3-difluoropropoxy)-2-fluorophenyl)-1-(1H-benzo[d]imidazol-5-yl)azetidin-2-one] |
| 3.8 nM | 1.3 nM | good | good | 165 to 170 °C | CC(F)(F)COc1ccc([C@H]2CC(=O)N2c2ccc3[nH]cnc3c2)c(F)c1 [Example 11, (R)-4-(4-(2,2-difluoropropoxy)-2-fluorophenyl)-1-(1H-benzo[d]imidazol-5-yl)azetidin-2-one] |
|  |  |  |  | 203 to 208 °C | CC(F)(F)COc1ccc([C@@H]2CC(=O)N2c2ccc3[nH]cnc3c2)c(F)c1 [Example 12, (S)-4-(4-(2,2-difluoropropoxy)-2-fluorophenyl)-1-(1H-benzo[d]imidazol-5-yl)azetidin-2-one] |
